Values after ≈ are worked out from the molar mass of the structure shown. Read-outs that look alike come from different tables or passages of the source.
What was measured:
[1] = tested on: MRSA ATCC 43300; assay: Time-kill kinetics assay; format: cell-based, Staphylococcus aureus; conditions: 8 × MIC; over 24 h of exposure
Description: The time–kill kinetics curve of Z33 was determined according to previous reports. MRSA ATCC 43300 strains were grown in Mueller–Hinton Broth (MHB) at the starting inoculum of 10^6 CFU/mL. […] MHB without antibiotics was used as a control. At various time points (0, 3, 6, 9, and 24 h), 100 µL of samples were diluted with 0.9% saline and plated on MHA medium. CFU were recorded after 24 h of incubation at 37 °C.

[2] = tested on: four S. aureus strains; assay: MIC and MBC, summary over four strains; format: cell-based; conditions: Staphylococcus aureus; range over four strains; read-out: MIC values against four S. aureus strains
Description: (§1) The MIC values of Z33 against MRSA ATCC 43300 and S. aureus clinical isolates were measured according to the broth microdilution guidelines provided by the Clinical and Laboratory Standards Institute (CLSI). S. aureus ATCC 29213 was used as the quality control strain, and the quality control range was referred to the CLSI. The MIC value is defined as the lowest concentration of the compounds with no visible growth of bacteria. The MIC assay was independently repeated three times.
(§2) The MBC values of antibacterial agents were measured after incubation at 37 °C for 24 h. Briefly, 100 µL of bacterial solution from the three wells behind the corresponding well of MIC was absorbed and spread on the Mueller–Hinton Agar (MHA). The MBC refers to the lowest concentration corresponding to the amount of colony-forming unit (CFU) ≤ 5 on the medium after 18~24 h of incubation at 37 °C.

[3] = tested on: four S. aureus strains; assay: MPC, summary over four strains; format: cell-based, Staphylococcus aureus
Description: (§3) The drug-resistant tendency suppression potential of Z33 and tiamulin was determined as described with minor modifications. In the test, for each S. aureus strain, 4 mL of overnight cultures were inoculated into 100 mL of fresh BHI broth and then incubated for 4.5 h at 37 °C with shaking (210 rpm). Cultures were centrifuged at 5000 r/min for 10 min. The supernatant was discarded and resuspended in the 4 mL of saline to achieve a bacterial density of ~3 × 10^10 CFU/mL. In total, 100 μL of each culture was spread onto MHA containing various concentrations of Z33 and tiamulin. […] Plates were incubated at 37 °C for a total of 72 h and recorded every 24 h for the appearance of colonies. MPC was defined as the lowest concentration with no growth of colonies on the agar plate. MPC was carried out in triplicate.

[4] = tested on: MRSA ATCC 43300; assay: Neutropenic mouse thigh infection model; format: in vivo, mice; conditions: for MRSA inoculum in the thigh muscle / reduction of bacterial load in the thigh muscle: 20 mg/kg intravenous; for MRSA inoculum in the thigh muscle: after treatment for 24 h; for reduction of bacterial load in the thigh muscle: versus untreated group
Description: The neutropenic mouse thigh infection model was used to determine the in vivo antibacterial activity of Z33 [23]. Briefly, female mice were rendered neutropenic (neutrophil count ≤ 100/mm^3) via intraperitoneal injection of cyclophosphamide on day 4 (150 mg/kg) and day 1 (100 mg/kg) before infection. MRSA ATCC 43300 cells were collected in the logarithmic phase and resuspended in 0.9% saline. The thigh infection model was established by injection of 100 μL of MRSA suspension (10^7 CFU/mL) into the posterior thighs of mice. After 2 h post-infection, mice were intravenously injected with tiamulin and Z33 at a dose of 20 mg/kg, and the untreated groups were administrated with an equal amount of saline. Mice were euthanized after treatment of 22 h, thigh tissue was aseptically collected, weighed, homogenized, and serially diluted in saline, respectively. CFU counts were determined by the flat colony counting method.

[5] = molecular target: T1, CYP2E1 (Homo sapiens, UniProt P05181); assay: CYP450 inhibition assay, human liver microsomes, chlorzoxazone probe; format: in vitro ADME; conditions: for IC50: human liver microsomes
T1 construct: 40 µL of the human liver microsomal enzyme (final concentration is 0.5 g/L); tissue Research Institute for Liver Diseases Co., Ltd. (Shanghai, China); host or cells: human liver microsomes
T1 sequence (P05181 whole entry): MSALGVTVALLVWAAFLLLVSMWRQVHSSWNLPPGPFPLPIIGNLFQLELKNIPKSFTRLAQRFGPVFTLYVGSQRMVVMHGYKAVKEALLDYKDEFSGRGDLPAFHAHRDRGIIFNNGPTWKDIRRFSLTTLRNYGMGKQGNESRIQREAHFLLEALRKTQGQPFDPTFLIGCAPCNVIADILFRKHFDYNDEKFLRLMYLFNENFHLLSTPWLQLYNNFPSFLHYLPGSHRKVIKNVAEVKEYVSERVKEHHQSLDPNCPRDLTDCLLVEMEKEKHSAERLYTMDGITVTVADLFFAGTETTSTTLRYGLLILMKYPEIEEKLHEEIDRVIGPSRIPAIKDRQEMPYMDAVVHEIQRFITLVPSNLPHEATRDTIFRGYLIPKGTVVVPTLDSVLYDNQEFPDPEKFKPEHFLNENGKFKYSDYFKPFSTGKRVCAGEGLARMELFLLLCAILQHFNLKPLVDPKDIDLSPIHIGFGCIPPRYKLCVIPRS
Description: (§4) The inhibition effect of Z33 and tiamulin on the human liver microsomal enzyme was determined as described in the literature with some modifications. Experiments were performed in 96-well plates with a final incubation volume of 100 μL per well. 40 µL of the human liver microsomal enzyme (final concentration is 0.5 g/L), 20 µL of probe substrate (final concentration of testosterone and chlorzoxazone is 20 µmol/L), and 20 µL of test drug were mixed in each well. After preincubation at 37 °C for 5 min, the reactions were started by the addition of 20 μL of NADPH (final concentration is 1 mmol/L). Depending on the substrate, the chlorzoxazone and testosterone groups were incubated at 37 °C for 25 min and 10 min, respectively. The reaction was terminated by adding 100 µL of acetonitrile, and then the supernatant was centrifuged to analyse by LC-MS/MS.

[6] = tested on: S. aureus clinical strain AD3; assay: Determination of MPC (mutant prevention concentration); format: cell-based, Staphylococcus aureus
Description: as §3

[7] = tested on: S. aureus ATCC 29213; assay: as above; format: cell-based, Staphylococcus aureus
Description: as §3

[8] = tested on: MRSA ATCC 43300; assay: as above; format: cell-based, Staphylococcus aureus
Description: as §3

[9] = tested on: S. aureus clinical strain 144; assay: as above; format: cell-based, Staphylococcus aureus
Description: as §3

[10] = tested on: MRSA ATCC 43300; assay: Post-antibiotic effect assay; format: cell-based, Staphylococcus aureus
Description: The PAE was measured using the method described by Jin et al.. MRSA ATCC 43300 cells were collected in the logarithmic phase and resuspended in MHB. The bacterial suspension (10^6 CFU/mL) was inoculated in MHB containing Z33 (final concentration is 2 × or 4 × MIC) and incubated for 1 or 2 h at 37 °C with shaking (210 rpm). The group without the drug served as a control. After treatment with various concentrations of Z33, samples were subjected to one-thousand-fold dilution with MHB to remove the drug and incubated at 37 °C. In total, 100 µL of the samples was serially diluted in 0.9% saline and plated onto MHA at various time points (0, 1, 2, 4, 8 h). MHA plates were incubated at 37 °C for 18~24 h to calculate CFU. The growth kinetic curves of MRSA treated with different drug concentrations were established by plotting log10 CFU/mL of bacterial counts versus time. PAE was presented in hours and calculated according to the following equation: PAE = TA − TC, where TA and TC are the time required for MRSA to rise by 1 log10 CFU/mL after drug removal in the treated and untreated cultures, respectively.

[11] = tested on: S. aureus clinical strain AD3; assay: MIC and MBC determination (broth microdilution); format: cell-based; conditions: Staphylococcus aureus; for MIC: first value of cell; for MBC: second value of cell
Description: as §1, §2

[12] = tested on: S. aureus ATCC 29213; assay: MIC and MBC determination (broth microdilution); format: cell-based; conditions: Staphylococcus aureus; for MIC: ATCC29213, first value of cell; for MBC: ATCC29213, second value of cell
Description: as §1, §2

[13] = tested on: MRSA ATCC 43300; assay: MIC and MBC determination (broth microdilution); format: cell-based; conditions: Staphylococcus aureus; for MIC: first value of MIC/MBC cell; for MBC: second value of MIC/MBC cell
Description: as §1, §2

[14] = tested on: S. aureus clinical strain 144; assay: MIC and MBC determination (broth microdilution); format: cell-based; conditions: Staphylococcus aureus; for MIC: first value of cell; for MBC: second value of cell
Description: as §1, §2

[15] = tested on: four S. aureus strains; assay: microbe, parasite or virus in culture; format: cell-based, Staphylococcus aureus; conditions: for passages after which resistance developed (≥ 4-fold MIC increase): four S. aureus strains
Description: To assess the propensity for the development of bacterial resistance, the ability of Z33 and tiamulin to induce resistance to four strains were tested, respectively. Serial passages at 37 °C were performed daily in BHI broth containing sub-MIC concentration (1/4 MIC) of Z33 and tiamulin. The MIC values were daily determined and recorded by the broth microdilution method. A duration of 13 passages was performed in every case.

[16] = molecular target: T2, CYP3A4 (Homo sapiens, UniProt P08684); assay: CYP450 inhibition assay, human liver microsomes, testosterone probe; format: in vitro ADME
T2 construct: 40 µL of the human liver microsomal enzyme (final concentration is 0.5 g/L); tissue Research Institute for Liver Diseases Co., Ltd. (Shanghai, China); host or cells: human liver microsomes
T2 sequence (P08684 whole entry): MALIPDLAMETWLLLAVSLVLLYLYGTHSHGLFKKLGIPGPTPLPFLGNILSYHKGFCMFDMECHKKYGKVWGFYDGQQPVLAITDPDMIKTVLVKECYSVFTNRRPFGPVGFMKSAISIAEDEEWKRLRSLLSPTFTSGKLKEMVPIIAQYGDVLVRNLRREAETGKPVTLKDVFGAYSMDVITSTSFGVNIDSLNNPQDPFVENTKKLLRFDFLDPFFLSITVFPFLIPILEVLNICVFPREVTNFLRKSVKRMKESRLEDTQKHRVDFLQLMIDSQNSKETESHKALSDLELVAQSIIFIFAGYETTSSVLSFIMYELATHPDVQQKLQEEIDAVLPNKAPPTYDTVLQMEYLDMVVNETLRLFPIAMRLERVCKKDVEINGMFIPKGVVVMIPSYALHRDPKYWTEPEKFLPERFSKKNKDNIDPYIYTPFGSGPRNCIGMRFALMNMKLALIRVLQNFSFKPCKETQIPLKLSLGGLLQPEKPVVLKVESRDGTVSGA
Description: as §4

[17] = Acute oral toxicity in mice; conditions: both sexes, ICR, mouse, in vivo, 5 g/kg; acute oral toxicity, mice
Description: (§5) The acute toxicity of Z33 was performed in mice according to previous works with some modifications. The ICR mice were randomly divided into two groups (10 animals in each group, half male and half female) after 12 h of fasting. Z33 was prepared with 0.5% CMC-Na sodium as a suspension at a concentration of 5 g/kg. Mice in the test group were administered with Z33 suspension by oral administration route, and the control group received an equal dose of 0.5% CMC-Na. All the mice were observed critically once a day for 14 days. The test was repeated twice.

[18] = tested on: ICR mice; assay: Acute oral toxicity in mice; conditions: mouse, in vivo, po, 5000 mg/kg
Description: as §5

[19] = Cytotoxicity test (MTT assay); format: cell-based; conditions: mouse, RAW264.7 macrophages, RAW264.7, MTT, tested up to 20 μg/mL
Description: (§6) To assess the effects of tiamulin and Z33 on the viability of RAW264.7 macrophages, the MTT assay was performed according to previous reports. […] After discarding the MTT solution, DMSO (150 μL) was added to each well to dissolve all crystals. OD490nm was recorded using EnSight Multimode Plate Reader (PerkinElmer, […], USA).

[20] = tested on: RAW264.7 cells; assay: Cytotoxicity test (MTT assay); format: cell-based; conditions: concentrations less than 5 μg/mL, 24 h, MTT
Description: as §6

[21] = Figure 6, read-out: IC50 CYP2E1 (value in plot key)
[22] = bound given in text, read-out: IC50 CYP2E1

| Structure (SMILES) | MRSA inoculum in the thigh muscle [4] [log10 CFU/g] | reduction of bacterial load in the thigh muscle [4] | IC50 [5, 21] [µM] | IC50 [5, 22] [µM] | MPC [6] [µg/mL] | MPC [7] [µg/mL] | MPC [8] [µg/mL] | MPC [9] [µg/mL] | MIC [11] [µg/mL] | MBC [11] [µg/mL] | MIC [12] [µg/mL] | MBC [12] [µg/mL] | MIC [13] [µg/mL] | MBC [13] [µg/mL] | MIC [14] [µg/mL] | MBC [14] [µg/mL] | fold increase in MICs ([15]; after 13 passages) | passages after which resistance developed (≥ 4-fold MIC increase) [15] [passages] | IC50 [16] [µM] | IC50 at 24 h [19] [µg/mL] | further results |
| --- | --- | --- | --- | --- | --- | --- | --- | --- | --- | --- | --- | --- | --- | --- | --- | --- | --- | --- | --- | --- | --- |
| C=C[C@]1(C)C[C@@H](OC(=O)CSc2ccccc2NC(=O)Cn2cc(CN3CCN(c4ccc([N+](=O)[O-])cc4)CC3)nn2)[C@]2(C)[C@H](C)CC[C@]3(CCC(=O)[C@H]32)[C@@H](C)[C@@H]1O [Compound Z33, 22-(2-(2-(4-((4-(4-nitrophenyl)piperazin-1-yl)methyl)-1H-1,2,3-triazol-1-yl)acetamido)phenyl)thioacety-l-yl-22-deoxypleuromutilin] | 7.065 ± 0.070 | approximately 1.358 log10 CFU/g | 10.2 | > 10 | 0.5 | 0.5 | 0.5 | 0.5 | 0.25 (≈ 0.307 µM) | 0.25 (≈ 0.307 µM) | 0.125 (≈ 0.154 µM) | 0.125 (≈ 0.154 µM) | 0.125 (≈ 0.154 µM) | 0.25 (≈ 0.307 µM) | 0.25 (≈ 0.307 µM) | 0.25 (≈ 0.307 µM) | approximately 16 fold | 8 | 1.57 | ≥ 20 | concentration showing inhibition of bacterial growth (time-kill) [1]: 1 µg/mL; MIC [2]: 0.125 to 0.25 µg/mL (≈ 0.154 to 0.307 µM); MPCs to four S. aureus strains [3]: 0.5 µg/mL; reduction in CFUs compared with the control group ([4]; 20 mg/kg, p < 0.0001): 1.358 log10; fold difference of CYP2E1 IC50 relative to tiamulin ([5]; Z33 vs tiamulin): at least 50 fold; PAE ([10]; 2 × MIC, exposure for 1 h): 2.24 h; PAE ([10]; 2 × MIC, exposure for 2 h): 2.18 h; PAE ([10]; 4 × MIC, exposure for 1 h): 3.89 h; PAE ([10]; 4 × MIC, exposure for 2 h): 3.93 h; fold decrease in susceptibility of the most resistant strain ([15]; after 13 passages): 32 fold; fold increase in MIC ([15]; in 7 passages, sub-MIC (1/4 MIC) exposure): ≤ 4 fold; LD50 at 14 days [17]: > 5000 mg/kg; mortality [18]: None of the mice died; cytotoxicity on RAW264.7 cells [20]: No significant cytotoxicity |
| C=C[C@]1(C)C[C@@H](OC(=O)CSCCN(CC)CC)[C@]2(C)[C@H](C)CC[C@]3(CCC(=O)[C@H]32)[C@@H](C)[C@@H]1O [tiamulin, reference compound] | 7.655 ± 0.067 | 0.771 log10 CFU/g | 0.184 | < 0.25 | 2 | 1 | 1 | 1 | 1 (≈ 2.03 µM) | 2 (≈ 4.05 µM) | 0.5 (≈ 1.01 µM) | 1 (≈ 2.03 µM) | 0.5 (≈ 1.01 µM) | 1 (≈ 2.03 µM) | 0.5 (≈ 1.01 µM) | 2 (≈ 4.05 µM) | ~32 fold | 3 | 1.6 | ≥ 20 | MIC ([15]; Staphylococcus aureus, read-out: MICs of resistant clones): 2 to 8 µg/mL (≈ 4.05 to 16.2 µM); cytotoxicity on RAW264.7 cells [20]: No significant cytotoxicity |
| C=C[C@]1(C)C[C@@H](OC(=O)CSC(C)(C)CNC(=O)[C@H](N)C(C)C)[C@]2(C)[C@H](C)CC[C@]3(CCC(=O)[C@H]32)[C@@H](C)[C@@H]1O [valnemulin] | – | – | – | – | – | – | – | – | 0.125 (≈ 0.221 µM) | 0.125 (≈ 0.221 µM) | 0.125 (≈ 0.221 µM) | 0.125 (≈ 0.221 µM) | 0.125 (≈ 0.221 µM) | 0.125 (≈ 0.221 µM) | 0.125 (≈ 0.221 µM) | 0.25 (≈ 0.443 µM) | – | – | – | – | – |
